Test results reported in patent US9102712B2, “Dendrimeric peptides, pharmaceutical compositions and methods of using the same” (New York University, priority 2010, dated 2015).
Values after ≈ are worked out from the molar mass of the structure shown. Square brackets hold non-standard residues; d marks the D form. Side chains are listed from the residue outwards. Peptide text beside a SMILES is read from it. * marks the point of attachment. Lys(α,ε-(ArgTrp)2) = N=C(N)NCCC[C@H](N)C(=O)N[C@@H](Cc1c[nH]c2ccccc12)C(=O)NCCCC[C@H](NC(=O)[C@H](Cc1c[nH]c2ccccc12)NC(=O)[C@@H](N)CCCNC(=N)N)C(=O)*; Trp(2,5,7-tBu3) = CC(C)(C)c1cc(C(C)(C)C)c2[nH]c(C(C)(C)C)c(C[C@H](N)C(=O)O)c2c1; βAla = NCCC(=O)O

Tests used:
S. aureus = assay type: cell-based
Description: (§1) The antibacterial activity of each dendrimer peptide was tested by following standard broth microdilution protocols recommended by the National Committee for Clinical Laboratory Standard (NCCLS 2004). Antibacterial testing was carried out on gram-negative bacteria E. coli (D31) and gram-positive bacteria S. aureus in liquid media Mueller Hinton (MH) Brooth according to literature procedures. Dendrimers were dissolved in PBS buffer (high salt, 150 mM NaCl; low salt, 75 mM NaCl), pH 7.4 to make series of stocks of 2-fold dilution. Cultures were grown overnight on Mueller Hinton (MH) agar plates, and 3 to 5 uniform colonies of each organism were transferred with an inoculating loop to test tubes containing MH broth, and incubated at 37° C. overnight, then diluted until the turbidity matched that of the 0.5 McFarland standard (approximately 1.5×10^8 cells/mL). The resulting solutions were further diluted to give approximately 2×10^4-2×10^5 CFU/mL. 100 μL of the bacterial inoculums were incubated in 96-well plates with varying volumes of stock solution and PBS buffer to bring the total volume to 200 μL. Solutions containing the same volumes of PBS buffer and MH Broth, with and without bacteria were used as controls. After these plates were incubated with shaking for 18 hrs at 37° C. to ensure the cultures had reached log phase growth, the absorbance readings were recorded at a wavelength of 600 nm using a Absorbance Microplate Reader BIO-TEK ELX800. The 18-hour absorbance data were used to calculate the percent inhibition for each test condition. All assays were carried out in triplicate. The experimental data were fitted to sigmoidal dose-response curves using GraphPad Prism (GraphPad Software Inc., San Diego, Calif., USA).

fresh sheep RBC = assay type: cell-based; details: red cells of sheep, 1 h
Description: Hemolytic activity of dendrimeric compounds were assessed on fresh sheep RBC (Fitzgerald, Inc., MA). Dendrimer concentrations corresponding to 50% hemolysis were used as hemolytic dose (HD50) determined from dose-response curve. The fresh sheep RBC was washed with PBS buffer (thrice) and aliquots of cell suspension were mixed in eppendorf tubes with varying volumes of stocks and buffer for a total volume of 400 μL. These tubes were incubated at 37° C. for 1 hr, and then spun down at 3,000 rpm for 5 mins. The resulting supernatant was trasferred to a 96-well plate and the absorbances at 540 nm were measured in an Absorbance Microplate Reader BIO-TEK ELX800. Zero hemolysis and 100% hemolysis controls were obtained by incubating the cells with buffer and 1% Triton X-100, respectively. Hemolytic index (HI) was defined as HI=HD50/IC50 (Table 1 and 3).

E. coli (D31) = assay: Antibacterial broth microdilution, E. coli; assay type: cell-based; details: for IC50 E. Coli D31: 50% inhibition of growth, MH broth, 18 hrs at 37° C., Table 3
Description: as §1

MRSA = assay type: cell-based, Methicillin-resistant Staphylococcus aureus; details: 18 h
Description: as §1

B. Subtilis = assay type: cell-based; details: 18 h

N=C(N)NCCC[C@H](N)C(=O)N[C@@H](Cc1c[nH]c2ccccc12)C(=O)NCCCC[C@H](NC(=O)[C@H](Cc1c[nH]c2ccccc12)NC(=O)[C@@H](N)CCCNC(=N)N)C(=O)NCCCC[C@H](NC(=O)[C@H](CCCCNC(=O)[C@H](Cc1c[nH]c2ccccc12)NC(=O)[C@@H](N)CCCNC(=N)N)NC(=O)[C@H](Cc1c[nH]c2ccccc12)NC(=O)[C@@H](N)CCCNC(=N)N)C(=O)NCCC(N)=O [(RW)4D, reference compound] (H-RWK([Trp-Arg])K(Lys(α,ε-(ArgTrp)2))[βAla]-NH2; N-terminus and C-terminus assumed)
S. Aureus IC50 (S. aureus; 18 h): 16 µg/mL | S. Aureus HI (hemolytic index) (S. aureus; HI=HD50/IC50, S. aureus): 88 | Hemolysis HD50 (fresh sheep RBC): 1400 µg/mL | E. Coli HI (hemolytic index) (E. coli (D31); HI=HD50/IC50, E. coli): 310

N=C(N)NCCC[C@H](NC(=O)[C@H](Cc1c[nH]c2ccccc12)NC(=O)[C@@H](N)CCCNC(=N)N)C(=O)NCCCC[C@H](NC(=O)[C@H](CCCNC(=N)N)NC(=O)[C@H](Cc1c[nH]c2ccccc12)NC(=O)[C@@H](N)CCCNC(=N)N)C(=O)NCCC(N)=O [Dendrimer 2D-04, reference compound] (H-RWRK([Arg-Trp-Arg])[βAla]-NH2)
IC50 MRSA (MRSA): 56.6 µg/mL (≈ 46.6 µM) | HD50 Hemolysis (fresh sheep RBC): 3428 µg/mL | IC50 E. Coli D31 (E. coli (D31)): 6.8 µg/mL (≈ 5.6 µM) | IC50 B. Subtilis (B. Subtilis): 6.1 µg/mL (≈ 5.03 µM)

CC(C)(C)c1cc(C(C)(C)C)c2[nH]c(C(C)(C)C)c(CC(NC(=O)[C@@H](N)CCCNC(=N)N)C(=O)N[C@@H](CCCNC(=N)N)C(=O)NCCCC[C@H](NC(=O)[C@H](CCCNC(=N)N)NC(=O)C(Cc3c(C(C)(C)C)[nH]c4c(C(C)(C)C)cc(C(C)(C)C)cc34)NC(=O)[C@@H](N)CCCNC(=N)N)C(=O)NCCC(N)=O)c2c1 (stereo partly drawn) [Dendrimer 2D-24]
IC50 MRSA (MRSA): 0.2 µg/mL (≈ 0.129 µM) | HD50 Hemolysis (fresh sheep RBC): 48 µg/mL | IC50 E. Coli D31 (E. coli (D31)): 0.5 µg/mL (≈ 0.323 µM) | IC50 B. Subtilis (B. Subtilis): 0.8 µg/mL (≈ 0.516 µM)

N=C(N)NCCC[C@H](NC(=O)[C@@H](N)Cc1c[nH]c2ccccc12)C(=O)NCCCC[C@H](NC(=O)[C@H](CCCCNC(=O)[C@H](CCCNC(=N)N)NC(=O)[C@@H](N)Cc1c[nH]c2ccccc12)NC(=O)[C@H](CCCNC(=N)N)NC(=O)[C@@H](N)Cc1c[nH]c2ccccc12)C(=O)NCCC(N)=O [Dendrimer 3D-03, reference compound] (H-WRK([Arg-Trp])K([Arg-Trp])[βAla]-NH2)
IC50 MRSA (MRSA): >100 µg/mL | HD50 Hemolysis (fresh sheep RBC): 3197 µg/mL | IC50 E. Coli D31 (E. coli (D31)): 12.1 µg/mL (≈ 8.82 µM) | IC50 B. Subtilis (B. Subtilis): 14.3 µg/mL (≈ 10.4 µM)

N=C(N)NCCC[C@H](NC(=O)[C@H](Cc1c[nH]c2ccccc12)NC(=O)[C@@H](N)CCCNC(=N)N)C(=O)NCCCC[C@H](NC(=O)[C@H](CCCCNC(=O)[C@H](CCCNC(=N)N)NC(=O)[C@H](Cc1c[nH]c2ccccc12)NC(=O)[C@@H](N)CCCNC(=N)N)NC(=O)[C@H](CCCNC(=N)N)NC(=O)[C@H](Cc1c[nH]c2ccccc12)NC(=O)[C@@H](N)CCCNC(=N)N)C(=O)NCCC(N)=O [Dendrimer 3D-06, reference compound] (H-RWRK([Arg-Trp-Arg])K([Arg-Trp-Arg])[βAla]-NH2)
IC50 MRSA (MRSA): 17.3 µg/mL (≈ 9.4 µM) | HD50 Hemolysis (fresh sheep RBC): 2336 µg/mL | IC50 E. Coli D31 (E. coli (D31)): 1.8 µg/mL (≈ 0.978 µM) | IC50 B. Subtilis (B. Subtilis): 1.9 µg/mL (≈ 1.03 µM)

CC(C)(C)c1cc(C(C)(C)C)c2[nH]c(C(C)(C)C)c(C[C@H](N)C(=O)N[C@@H](CCCNC(=N)N)C(=O)NCCCC[C@H](NC(=O)[C@H](CCCCNC(=O)[C@H](CCCNC(=N)N)NC(=O)[C@@H](N)Cc3c[nH]c4ccccc34)NC(=O)[C@H](CCCNC(=N)N)NC(=O)[C@@H](N)Cc3c[nH]c4ccccc34)C(=O)NCCC(N)=O)c2c1 [Dendrimer 3D-13] (H-WRK([Arg-Trp])K([Arg-Trp(2,5,7-tBu3)])[βAla]-NH2)
IC50 MRSA (MRSA): 1.7 µg/mL (≈ 1.1 µM) | HD50 Hemolysis (fresh sheep RBC): 270 µg/mL | IC50 E. Coli D31 (E. coli (D31)): 1.0 µg/mL (≈ 0.649 µM) | IC50 B. Subtilis (B. Subtilis): 1.9 µg/mL (≈ 1.23 µM)
